Activity calls are given as the source filed them. The rule behind the calls is not given here.

The subject of one series is Splenocyte. The experiment in a line: Immunostimulatory activity in wild-type C57BL/6JNarl mouse splenocytes assessed as increase in IFN-gamma expression level at 10 to 25 uM incubated for 48 hrs by ELISA. Format: functional, cell-based. The settings on record: dose 10-25 µM.
Regarding `CCCCCCCCCCCCNC(=O)[C@H](CS[C@@H]1[C@H](O)[C@@H](O)[C@@H](O)[C@H]2COC(=O)N21)NC(=O)CCCCCCCCCCC`, the result was Active.

Another series concerns Splenocyte. Put plainly: Immunostimulatory activity in wild-type C57BL/6JNarl mouse splenocytes assessed as increase in IL-6 expression level at 10 to 25 uM incubated for 48 hrs by ELISA. It counts as functional, cell-based. The settings on record: dose 10-25 µM.
Turning to `CCCCCCCCCCCCNC(=O)[C@H](CS[C@@H]1[C@H](O)[C@@H](O)[C@@H](O)[C@H]2COC(=O)N21)NC(=O)CCCCCCCCCCC`, the outcome was inactive.

A further series concerns Splenocyte. Put plainly: Immunostimulatory activity in MyD88 knockout C57BL/6JNarl mouse splenocytes assessed as increase in IFN-gamma expression level at 10 to 25 uM incubated for 48 hrs by ELISA. Format: functional, cell-based. Conditions: dose 10-25 µM.
Regarding `CCCCCCCCCCCCNC(=O)[C@H](CS[C@@H]1[C@H](O)[C@@H](O)[C@@H](O)[C@H]2COC(=O)N21)NC(=O)CCCCCCCCCCC`, the result was inactive.

For the next series, the system named is Splenocyte. Put plainly: Immunostimulatory activity in MyD88 knockout C57BL/6JNarl mouse splenocytes assessed as increase in IL-6 expression level at 10 to 25 uM incubated for 48 hrs by ELISA. Format: functional, cell-based. The settings on record: dose 10-25 µM.
In the case of `CCCCCCCCCCCCNC(=O)[C@H](CS[C@@H]1[C@H](O)[C@@H](O)[C@@H](O)[C@H]2COC(=O)N21)NC(=O)CCCCCCCCCCC`, the outcome was inactive.

For the next series, the target named is Toll-like receptor 4 (Homo sapiens) (UniProt O00206). The experiment in a line: Agonist activity at human TLR4 expressed in human HEK293 cells co-expressing human MD-2 and CD14 assessed as IL-8 expression level at 10 to 25 uM incubated for 24 hrs by ELISA. Conditions: filed as agonist, dose 10-25 µM. Format: cell-based.
Sequence of Toll-like receptor 4 (Homo sapiens) (O00206 whole entry): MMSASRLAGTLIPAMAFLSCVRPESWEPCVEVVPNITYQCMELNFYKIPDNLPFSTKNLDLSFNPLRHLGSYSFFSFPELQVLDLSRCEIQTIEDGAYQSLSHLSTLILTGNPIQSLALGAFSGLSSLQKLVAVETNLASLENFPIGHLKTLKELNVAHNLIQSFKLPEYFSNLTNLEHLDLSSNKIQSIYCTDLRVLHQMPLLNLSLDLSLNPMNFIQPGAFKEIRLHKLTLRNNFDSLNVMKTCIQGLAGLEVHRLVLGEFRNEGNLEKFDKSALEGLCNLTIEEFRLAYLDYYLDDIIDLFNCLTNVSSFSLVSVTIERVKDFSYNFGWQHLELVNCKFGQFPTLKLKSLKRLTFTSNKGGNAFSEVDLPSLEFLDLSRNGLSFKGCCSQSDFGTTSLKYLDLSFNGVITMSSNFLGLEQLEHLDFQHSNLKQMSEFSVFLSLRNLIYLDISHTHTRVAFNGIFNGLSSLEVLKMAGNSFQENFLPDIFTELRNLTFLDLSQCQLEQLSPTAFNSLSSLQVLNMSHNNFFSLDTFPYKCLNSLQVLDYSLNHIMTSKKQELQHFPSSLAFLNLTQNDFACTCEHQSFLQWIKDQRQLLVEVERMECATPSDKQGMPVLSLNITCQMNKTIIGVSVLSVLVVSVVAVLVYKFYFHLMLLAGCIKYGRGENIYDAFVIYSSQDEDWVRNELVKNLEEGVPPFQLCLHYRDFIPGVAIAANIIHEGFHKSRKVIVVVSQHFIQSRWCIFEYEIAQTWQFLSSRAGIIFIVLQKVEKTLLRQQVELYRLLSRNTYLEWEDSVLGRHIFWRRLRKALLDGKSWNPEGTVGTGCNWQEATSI
In the case of `CCCCCCCCCCCCNC(=O)[C@H](CS[C@@H]1[C@H](O)[C@@H](O)[C@@H](O)[C@H]2COC(=O)N21)NC(=O)CCCCCCCCCCC`, the result was Active.

Another series has the same target. Put plainly: Activation of TLR4 signaling in human HEK293 cells assessed as IL-8 expression level at 10 to 25 uM incubated for 24 hrs by ELISA. Format: cell-based. Conditions: dose 10-25 µM.
`CCCCCCCCCCCCNC(=O)[C@H](CS[C@@H]1[C@H](O)[C@@H](O)[C@@H](O)[C@H]2COC(=O)N21)NC(=O)CCCCCCCCCCC`: the result was inactive.

For another series the target is unchanged. Put plainly: Activation of TLR4 signaling in human HEK293 cells expressing human MD-2 and CD14 assessed as IL-8 expression level at 10 to 25 uM incubated for 24 hrs by ELISA. It counts as cell-based. The settings on record: dose 10-25 µM.
With `CCCCCCCCCCCCNC(=O)[C@H](CS[C@@H]1[C@H](O)[C@@H](O)[C@@H](O)[C@H]2COC(=O)N21)NC(=O)CCCCCCCCCCC`, the outcome was inactive.

The target in the next series is Toll-like receptor 2 (Homo sapiens) (UniProt O60603). Put plainly: Agonist activity at human TLR2 expressed in human HEK293 cells assessed as IL-8 expression level at 10 to 25 uM incubated for 24 hrs by ELISA. The settings on record: dose 10-25 µM. Format: cell-based.
Sequence of Toll-like receptor 2 (Homo sapiens) (O60603 whole entry): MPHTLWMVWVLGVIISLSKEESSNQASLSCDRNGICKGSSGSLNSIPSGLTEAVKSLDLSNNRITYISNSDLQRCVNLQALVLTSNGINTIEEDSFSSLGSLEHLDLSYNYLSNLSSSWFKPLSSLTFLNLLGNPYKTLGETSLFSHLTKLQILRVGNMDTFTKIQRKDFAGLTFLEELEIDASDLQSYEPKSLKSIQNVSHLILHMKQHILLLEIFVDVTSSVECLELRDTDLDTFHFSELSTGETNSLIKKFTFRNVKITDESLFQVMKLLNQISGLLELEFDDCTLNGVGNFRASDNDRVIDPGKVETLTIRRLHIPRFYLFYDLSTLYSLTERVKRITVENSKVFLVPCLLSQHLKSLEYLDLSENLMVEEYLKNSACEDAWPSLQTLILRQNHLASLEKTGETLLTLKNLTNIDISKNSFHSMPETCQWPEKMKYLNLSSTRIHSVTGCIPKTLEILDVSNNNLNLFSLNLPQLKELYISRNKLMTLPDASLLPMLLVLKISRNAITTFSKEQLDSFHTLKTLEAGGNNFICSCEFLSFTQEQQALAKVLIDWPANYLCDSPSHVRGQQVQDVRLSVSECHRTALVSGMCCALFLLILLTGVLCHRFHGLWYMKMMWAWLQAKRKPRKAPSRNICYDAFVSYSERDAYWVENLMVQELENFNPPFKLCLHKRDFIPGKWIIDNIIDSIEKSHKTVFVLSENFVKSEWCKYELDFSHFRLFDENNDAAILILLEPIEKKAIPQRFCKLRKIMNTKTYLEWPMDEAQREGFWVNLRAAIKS
In the case of `CCCCCCCCCCCCNC(=O)[C@H](CS[C@@H]1[C@H](O)[C@@H](O)[C@@H](O)[C@H]2COC(=O)N21)NC(=O)CCCCCCCCCCC`, the result was inactive.

For a further series, the system named is Splenocyte. Put plainly: Cytotoxicity in wild-type C57BL/6JNarl mouse splenocytes assessed as reduction in cell viability at 25 uM by MTT assay. It counts as toxicity, cell-based.
Details: not given
Consider `CCCCCCCCCCCCNC(=O)[C@H](CS[C@@H]1[C@H](O)[C@@H](O)[C@@H](O)[C@H]2COC(=O)N21)NC(=O)CCCCCCCCCCC`, for which the Activity result is recorded as “Non-Toxic”.

The subject of the next series is HEK293. The experiment in a line: Cytotoxicity in human HEK293 cells assessed as reduction in cell viability at 25 uM by MTT assay. Format: toxicity, cell-based. The settings on record: hek293, 25 µM.
Regarding `CCCCCCCCCCCCNC(=O)[C@H](CS[C@@H]1[C@H](O)[C@@H](O)[C@@H](O)[C@H]2COC(=O)N21)NC(=O)CCCCCCCCCCC`, the Activity entry is reported as “Non-Toxic”.

The target in the next series is T1, Antigen-presenting glycoprotein CD1d1 (Mus musculus) (UniProt P11609).
T1 sequence (whole entry): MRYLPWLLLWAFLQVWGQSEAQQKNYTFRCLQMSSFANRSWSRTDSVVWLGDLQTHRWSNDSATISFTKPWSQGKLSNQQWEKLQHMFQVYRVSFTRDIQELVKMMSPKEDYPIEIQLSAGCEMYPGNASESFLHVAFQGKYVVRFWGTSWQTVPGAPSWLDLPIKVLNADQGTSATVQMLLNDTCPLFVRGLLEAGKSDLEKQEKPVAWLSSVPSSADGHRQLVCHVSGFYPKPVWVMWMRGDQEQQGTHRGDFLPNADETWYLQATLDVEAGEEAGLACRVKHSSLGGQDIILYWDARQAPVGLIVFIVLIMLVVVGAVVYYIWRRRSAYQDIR
Put plainly: Activation of CD1d signaling in mouse iNKT hybridoma DN3A4-1.2 cells co-cultured with mouse A20 cells expressing CD1d assessed as IL-2 expression level at 10 to 25 uM incubated for 24 hrs by ELISA. It counts as cell-based. Conditions: iNKT hybridoma DN3A4-1.2 cell, dose 10-25 µM.
For the compound `CCCCCCCCCCCCNC(=O)[C@H](CS[C@@H]1[C@H](O)[C@@H](O)[C@@H](O)[C@H]2COC(=O)N21)NC(=O)CCCCCCCCCCC`, the outcome was inactive.

In the next series the target is T1, Antigen-presenting glycoprotein CD1d1 (Mus musculus). Put plainly: Binding affinity to mouse CD1d in alpha-GalCer stimulated mouse iNKT hybridoma DN3A4-1.2 cells expressing co-cultured with mouse A20 cells expressing mouse CD1d assessed as inhibition of alpha-GlaCer activity by measuring IL-2 expression level at 10 to 25 uM incubated for 24 hrs by ELISA. Format: cell-based. Conditions: iNKT hybridoma DN3A4-1.2 cell, dose 10-25 µM.
In the case of `CCCCCCCCCCCCNC(=O)[C@H](CS[C@@H]1[C@H](O)[C@@H](O)[C@@H](O)[C@H]2COC(=O)N21)NC(=O)CCCCCCCCCCC`, the result was inactive.

Another series relates to PBMC. Put plainly: Immunostimulatory activity in human PBMC cells assessed as increase in IFN-gamma expression level at 10 to 25 uM by ELISA. It counts as functional, cell-based. Conditions: dose 10-25 µM.
Regarding `CCCCCCCCCCCCNC(=O)[C@H](CS[C@@H]1[C@H](O)[C@@H](O)[C@@H](O)[C@H]2COC(=O)N21)NC(=O)CCCCCCCCCCC`, the result was inactive.

A further series deals with PBMC. Put plainly: Immunostimulatory activity in human PBMC cells assessed as increase in IL-6 expression level at 10 to 25 uM by ELISA. Format: functional, cell-based. The settings on record: dose 10-25 µM.
`CCCCCCCCCCCCNC(=O)[C@H](CS[C@@H]1[C@H](O)[C@@H](O)[C@@H](O)[C@H]2COC(=O)N21)NC(=O)CCCCCCCCCCC`: the outcome was inactive.

For the next series, the system named is Mus musculus. Put plainly: Immunostimulatory activity in C57BL/6JNarl mouse assessed as increase in IFN-gamma expression level in serum at 20 microg/g, ip and measured after 2 hrs by ELISA. It counts as functional, organism-based. Conditions: dose 20.0 µg/g.
As for `CCCCCCCCCCCCNC(=O)[C@H](CS[C@@H]1[C@H](O)[C@@H](O)[C@@H](O)[C@H]2COC(=O)N21)NC(=O)CCCCCCCCCCC`, the result was Active.

Another series concerns Mus musculus. Put plainly: Immunostimulatory activity in C57BL/6JNarl mouse assessed as increase in IL-4 expression level in serum at 20 microg/g, ip and measured after 2 hrs by ELISA. Format: functional, organism-based. Conditions: dose 20.0 µg/g.
For `CCCCCCCCCCCCNC(=O)[C@H](CS[C@@H]1[C@H](O)[C@@H](O)[C@@H](O)[C@H]2COC(=O)N21)NC(=O)CCCCCCCCCCC`, the result was Active.

Another series relates to Mus musculus. Put plainly: Immunostimulatory activity in C57BL/6JNarl mouse assessed as increase in IFN-gamma expression level in serum at 20 microg/g, ip and measured after 18 hrs by ELISA. Format: functional, organism-based. Conditions: dose 20.0 µg/g.
For `CCCCCCCCCCCCNC(=O)[C@H](CS[C@@H]1[C@H](O)[C@@H](O)[C@@H](O)[C@H]2COC(=O)N21)NC(=O)CCCCCCCCCCC`, the outcome was Active.

Another series deals with Mus musculus. Put plainly: Immunostimulatory activity in C57BL/6JNarl mouse assessed as increase in IL-4 expression level in serum at 20 microg/g, ip and measured after 18 hrs by ELISA. It counts as functional, organism-based. The settings on record: dose 20.0 µg/g.
As for `CCCCCCCCCCCCNC(=O)[C@H](CS[C@@H]1[C@H](O)[C@@H](O)[C@@H](O)[C@H]2COC(=O)N21)NC(=O)CCCCCCCCCCC`, the result was Active.

The next series deals with Mus musculus. The experiment in a line: Immunomodulatory activity in OVA-sensitized asthmatic BALB/c mouse model assessed as inhibition of methacholine induced airway hyperreactivity by measuring pulmonary resistance at 20 microg/g, ip administered after day 14 OVA sensitization. It counts as functional. Details: scale not given: the % may be the effect or the level left. The settings on record: dose 20 µg/g.
For the compound `CCCCCCCCCCCCNC(=O)[C@H](CS[C@@H]1[C@H](O)[C@@H](O)[C@@H](O)[C@H]2COC(=O)N21)NC(=O)CCCCCCCCCCC`, the Activity was 50%.

The subject of the next series is Mus musculus. The experiment in a line: Immunomodulatory activity in OVA-sensitized asthmatic BALB/c mouse model assessed as reduction in IL-4 expression level in BALF at 20 microg/g, ip administered after day 14 OVA sensitization by ELISA. Format: functional, organism-based. Conditions: dose 20.0 µg/g.
`CCCCCCCCCCCCNC(=O)[C@H](CS[C@@H]1[C@H](O)[C@@H](O)[C@@H](O)[C@H]2COC(=O)N21)NC(=O)CCCCCCCCCCC`: the outcome was Active.

In another series the test system is Mus musculus. Put plainly: Immunomodulatory activity in OVA-sensitized asthmatic BALB/c mouse model assessed as reduction in IL-4 expression level in lung at 20 microg/g, ip administered after day 14 OVA sensitization by ELISA. It counts as functional, organism-based. The settings on record: dose 20.0 µg/g.
On to `CCCCCCCCCCCCNC(=O)[C@H](CS[C@@H]1[C@H](O)[C@@H](O)[C@@H](O)[C@H]2COC(=O)N21)NC(=O)CCCCCCCCCCC`, for which the outcome was Active.
